The values that follow come from ChEMBL document CHEMBL4483862, “Open-source discovery of chemical leads for next-generation chemoprotective antimalarials” (2018).

This experiment relates to Plasmodium berghei. In words: Luciferase/luciferin-expressing antifolate-resistant parasites were used to infect a culture of HepG2 cells that were pre-incubated with compounds. Infected hepatocytes emit light due to the luciferase reaction. Assay results are presented as the percent inhibition of light emission compared to control. […]. The format is functional. Particulars: sporozoite; for IC90: read-out: LUCIFERASE INFECTION ASSAY - IC90.

Setting [1] is: read-out: LUCIFERASE INFECTION ASSAY - IC50.

Consider `Cc1cccc(C(=O)Nc2cc(S(=O)(=O)N3CCOCC3)ccc2N2CCCCC2)n1`, for which the IC90 (as a rule, the concentration at which the effect reaches the 90% level) is over 10 µM. The IC50 (usually the point on the concentration scale where inhibition reaches its midpoint) (HEPG2TOX_HILL_SLOPE 0.0521, HEPG2TOX_R_SQUARED 0.112, read-out: LUCIFERASE INFECTION ASSAY - IC50) is over 10 µM.

Turning to `O=C1N(CCCc2cccnc2)C(=O)C2(CCN(Cc3ccsc3)CC2)N1Cc1ccccc1`, the IC90 is over 6.95 µM. Also, the IC50 under setting [1] is over 6.95 µM.

On to `CNC(=O)c1cccc(Nc2ccn3nc(-c4ccccc4)cc3n2)c1`, for which the IC90 came to 3.76 µM.

As to `O=C(Nc1ccccc1)C1=C(N2CCOCC2)/C(=C/c2ccc(Br)cc2)CC1`, the IC90 is over 10 µM. Moreover, the IC50 under setting [1] is over 10 µM.

On to `COc1ccc(/C=C2\N=C(SCC(=O)O)N(Cc3ccccc3)C2=O)cc1`, for which the IC90 was 0.545 µM. Besides, the IC50 (PBLUC_HILL_SLOPE 72.9, PBLUC_R_SQUARED 0.433, read-out: LUCIFERASE INFECTION ASSAY - IC50) was 0.529 µM.

Consider `O=C(O)C1C2C=CC(O2)C1C(=O)Nc1ccc(OC(F)(F)F)cc1` (centres undefined), for which the IC90 was over 9.61 µM. Also, under “PBLUC_HILL_SLOPE 1.22, PBLUC_R_SQUARED 0.106, read-out: LUCIFERASE INFECTION ASSAY - IC50”, the IC50 was over 9.61 µM.

Turning to `O=S(=O)(Nc1ccc(OC(F)(F)F)cc1)c1ccc(S(=O)(=O)c2ncc(C(F)(F)F)cc2Cl)s1`, the IC90 is over 5.82 µM. For the setting “FFLUC_HILL_SLOPE 4.61, FFLUC_R_SQUARED 0.168, read-out: LUCIFERASE INFECTION ASSAY - IC50”, the IC50 is over 5.82 µM.

For `Cc1cccc(N2CCN(C(=O)c3nn(-c4ccccc4)c(=O)c4ccccc34)CC2)c1C`, the concentration for an effect of 90% (IC90) was over 10 µM. For the same compound, the IC50 under setting [1] is over 10 µM.

As for `COc1cc(CNC(=O)c2scnc2C)ccc1OC1CCCC1`, the IC90 was over 10 µM. In addition, the IC50 under setting [1] was found to be 2.89 µM.

In the case of `Cc1cc2occ(CC(=O)N(c3ccc(F)cc3)c3nc4ccccc4s3)c2cc1C(C)C`, the IC90 was over 10 µM. The IC50 (FFLUC_HILL_SLOPE 13, FFLUC_R_SQUARED 0.172, read-out: LUCIFERASE INFECTION ASSAY - IC50) is over 10 µM.

Take `CCc1ccc(-c2nc(Cn3cnc4ccccc4c3=O)cs2)cc1`: the IC90 is over 10 µM. The IC50 under setting [1] is over 10 µM.

As for `Clc1ccc(-c2n[nH]cc2CNCC2CN(Cc3ccccc3)CCO2)cc1` (centres undefined), the IC90 is over 10 µM. Besides, the IC50 (PBLUC_HILL_SLOPE 12.9, PBLUC_R_SQUARED 0.0772, read-out: LUCIFERASE INFECTION ASSAY - IC50) is 9.51 µM.

Regarding `O=C(COC(=O)/C=C/c1ccc(I)o1)Nc1cc(S(=O)(=O)N2CCCCC2)ccc1Cl`, the IC90 was over 10 µM. Further, the IC50 (FFLUC_HILL_SLOPE 7.36, FFLUC_R_SQUARED 0.327, read-out: LUCIFERASE INFECTION ASSAY - IC50) was over 10 µM.

On to `Cc1ccc(S(=O)(=O)Nc2ccc(Nc3nccn4c(-c5cccc(OC(F)(F)F)c5)cnc34)cc2)cc1`, for which the IC90 was over 6.12 µM. Where the note is “PBLUC_HILL_SLOPE 2.83, PBLUC_R_SQUARED 0.42, read-out: LUCIFERASE INFECTION ASSAY - IC50”, the IC50 is 3 µM.

Take `C/C=C/c1ccc(OCC(O)Cn2c(=O)c(-c3ccccc3)[n+]([O-])c3ccccc32)c(OC)c1` (centres undefined): the IC90 was found to be 9.19 µM. Further, the IC50 under setting [1] was 1.21 µM.

For the compound `Cc1cc(Oc2ccc(C(F)(F)F)cc2NS(=O)(=O)c2cc(C(F)(F)F)cc(C(F)(F)F)c2)cc(C)c1Cl`, the concentration for an effect of 90% (IC90) was over 5.58 µM. In addition, the IC50 under setting [1] is over 5.58 µM.

`Cc1ccc(CC(=O)NCc2ccc(C#N)cc2)cc1`: the IC90 is 8.45 µM. In addition, the IC50 (PBLUC_HILL_SLOPE 3.17, PBLUC_R_SQUARED 0.517, read-out: LUCIFERASE INFECTION ASSAY - IC50) is 4.23 µM.

For `Cc1[nH]c(C(=O)N2CCN(CC3CCCCC3)CC2)c(C)c1C(=O)OC(C)C`, the IC90 was over 10 µM. Moreover, the IC50 under setting [1] is over 10 µM.

For `Cc1nn(-c2cccc(C(F)(F)F)c2)c2sc(C(=O)NC(=S)N(C)C3CCCCC3)cc12`, the IC90 is 1.27 µM. Besides, the IC50 under setting [1] came out at 1.09 µM.

As to `Cc1ccc(C)c(NC(=O)CN(C)C(=O)CN(C)C(C)c2ccccc2)c1` (centres undefined), the concentration for an effect of 90% (IC90) is over 10 µM. Moreover, the half-inhibitory concentration (IC50) under setting [1] is over 10 µM.

Consider `Cc1nc2ccccc2nc1SCC(=O)c1ccc(NS(C)(=O)=O)cc1`, for which the IC90 was over 10 µM. Also, the IC50 (FFLUC_HILL_SLOPE 1.05, FFLUC_R_SQUARED 0.177, HEPG2TOX_HILL_SLOPE 1.12, HEPG2TOX_R_SQUARED 0.682, read-out: LUCIFERASE INFECTION ASSAY - IC50) is over 10 µM.

As for `Cc1sc2nc(-c3cccnc3)nc(NC3CCC(O)CC3)c2c1-c1ccccc1` (centres undefined), the IC90 was over 10 µM. Besides, the IC50 under setting [1] is over 10 µM.

Regarding `COc1ccc(-c2cc([N+](=O)[O-])ccc2OCC(=O)NC(=O)NCCC(C)C)cc1`, the IC90 was over 10 µM. Moreover, for the setting “PBLUC_HILL_SLOPE 8.25, PBLUC_R_SQUARED 0.103, read-out: LUCIFERASE INFECTION ASSAY - IC50”, the IC50 is 9.42 µM.

With `CCCCCc1ccc(C(=O)Nc2nc3ccccn3c2C(=O)NCCCN2CCOCC2)cc1`, the IC90 amounted to 3.5 µM. Moreover, the IC50 (PBLUC_HILL_SLOPE 8.91, PBLUC_R_SQUARED 0.136, read-out: LUCIFERASE INFECTION ASSAY - IC50) stood at 2.74 µM.

For the compound `O=C(c1[nH]nc2ccccc12)N1CCN(Cc2ccc(C(F)(F)F)cc2)CC1`, the IC90 was over 10 µM. Moreover, the IC50 (HEPG2TOX_HILL_SLOPE 2.95, HEPG2TOX_R_SQUARED 0.96, PBLUC_HILL_SLOPE 4.05, PBLUC_R_SQUARED 0.587, read-out: LUCIFERASE INFECTION ASSAY - IC50) turned out to be 6.61 µM.
